Patent US20120165376A1, “STABILIZED MICROBICIDAL COMPOSITION” (priority 2010, published 2012)
One block for each compound: values may come before it.

What was measured:
Format in all cases: physicochemical
[1] = Storage stability of formulations having 20% DBNPA and 0.25% CMI/MI (3:1): oven at 45° C., loss after 28 days
Experimental: These formulations were prepared, using salt-free CMI/MI and placed in an oven at 45° C. and analyzed for loss of the biocides after 28 days.

[2] = Storage stability of formulations having 20% DBNPA and 6% BNPD: oven at 45° C., loss after 28 days
Experimental: These formulations were prepared and placed in an oven at 45° C. and analyzed for loss of the biocides after 28 days.

[3] = Storage stability of formulations having 20% DBNPA, 6% BNPD and 1.25% CMI/MI (3:1): oven at 40° C., loss of biocides after 60 days; settings: 6% BNPD
Experimental: These formulations were prepared from salt-free CMI/MI biocide, except as otherwise indicated. They were placed in an oven at 40° C. and analyzed for loss of the biocides after 60 days.

[4] = Storage stability of formulations having 10-20% DBNPA, without BNPD or CMI/MI: oven at 45° C., loss after 28 days
Experimental: These were prepared and placed in an oven at 45° C. and analyzed for loss of the biocides after 28 days. […]=diethylene glycol monomethyl ether.

[5] = glycerin 0%, water 20%, DPG 54, 20% DBNPA
[6] = glycerin 0%, water 20%, TetEG 54, 20% DBNPA
[7] = glycerin 10%, water 5%, DPG 60, 20% DBNPA
[8] = glycerin 10%, water 5%, TetEG 60, 20% DBNPA
[9] = glycerin 10%, water 10%, DPG 54, 20% DBNPA
[10] = glycerin 10%, water 10%, TetEG 54, 20% DBNPA
[11] = glycerin 20%, water 10%, DPG 44, 20% DBNPA
[12] = glycerin 20%, water 10%, TEG 44, 20% DBNPA
[13] = glycerin 20%, water 10%, TetEG 44, 20% DBNPA
[14] = glycerin 30%, water 5%, DPG 39, 20% DBNPA
[15] = glycerin 30%, water 5%, TetEG 39, 20% DBNPA
[16] = glycerin 30%, water 10%, DPG 34, 20% DBNPA
[17] = glycerin 30%, water 10%, TetEG 34, 20% DBNPA
[18] = glycerin 30%, water […]%, DPG 29, 20% DBNPA, result believed to be erroneous
[19] = glycerin 30%, water […]%, TetEG 29, 20% DBNPA
[20] = glycerin 0%, water 10%, TEG-mono-butyl ether 59.5%
[21] = glycerin 0%, water 20%, TEG 49.5%
[22] = glycerin 0%, water 20%, TEG-mono-butyl ether 49.5%
[23] = glycerin 0%, water 30%, TEG 39.5%
[24] = glycerin 0%, water 30%, TEG-mono-butyl ether 39.5%
[25] = glycerin 10%, water 10%, TEG 49.5%
[26] = glycerin 10%, water 20%, TEG-mono-butyl ether 39.5%
[27] = glycerin 10%, water 30%, TEG-mono-butyl ether 29.5%
[28] = glycerin 20%, water 10%, TEG 39.5%
[29] = glycerin 20%, water 20%, TEG 29.5%

DBNPA loss, % ([1]; glycerin 0%, water 20%, DPG 59, 20% DBNPA, 0.25% CMI/MI (3:1)): 10%
DBNPA loss, % ([1]; glycerin 0%, water 20%, TetEG 59, 20% DBNPA, 0.25% CMI/MI (3:1)): 4%
DBNPA loss, % ([1]; glycerin 10%, water 5%, DPG 64, 20% DBNPA, 0.25% CMI/MI (3:1), result believed to be erroneous): 27^1%
DBNPA loss, % ([1]; glycerin 10%, water 5%, TetEG 64, 20% DBNPA, 0.25% CMI/MI (3:1)): 2.5%
DBNPA loss, % ([1]; glycerin 10%, water 10%, DPG 59, 20% DBNPA, 0.25% CMI/MI (3:1)): 7%
DBNPA loss, % ([1]; glycerin 10%, water 10%, TetEG 59, 20% DBNPA, 0.25% CMI/MI (3:1)): 3.5%
DBNPA loss, % ([1]; glycerin 20%, water 10%, DPG 49, 20% DBNPA, 0.25% CMI/MI (3:1)): 3.5%
DBNPA loss, % ([1]; glycerin 20%, water 10%, TEG 49, 20% DBNPA, sample had 1% CMI/MI): 6%
DBNPA loss, % ([1]; glycerin 20%, water 10%, TetEG 49, 20% DBNPA, 0.25% CMI/MI (3:1)): 3.5%
DBNPA loss, % ([1]; glycerin 30%, water 5%, DPG 44, 20% DBNPA, 0.25% CMI/MI (3:1)): 6%
DBNPA loss, % ([1]; glycerin 30%, water 5%, TetEG 44, 20% DBNPA, 0.25% CMI/MI (3:1)): 6%
DBNPA loss, % ([1]; glycerin 30%, water 10%, DPG 39, 20% DBNPA, 0.25% CMI/MI (3:1)): 4%
DBNPA loss, % ([1]; glycerin 30%, water 10%, TetEG 39, 20% DBNPA, 0.25% CMI/MI (3:1)): 2.5%
DBNPA loss, % ([1]; glycerin 30%, water 20%, DPG 29, 20% DBNPA, 0.25% CMI/MI (3:1)): 4%
DBNPA loss, % ([1]; glycerin 30%, water 20%, TetEG 29, 20% DBNPA, 0.25% CMI/MI (3:1)): 3.5%
DBNPA loss, % ([1]; glycerin 30%, water […]%, DPG 34, 20% DBNPA, 0.25% CMI/MI (3:1)): 3.5%
DBNPA loss, % ([1]; glycerin 30%, water […]%, TetEG 34, 20% DBNPA, 0.25% CMI/MI (3:1)): 3%
DBNPA loss, % [2, 5]: 3.5%
DBNPA loss, % [2, 6]: 2%
DBNPA loss, % [2, 7]: 7%
DBNPA loss, % [2, 8]: 5%
DBNPA loss, % [2, 9]: 6%
DBNPA loss, % [2, 10]: 7%
DBNPA loss, % [2, 11]: 3%
DBNPA loss, % [2, 12]: 7%
DBNPA loss, % [2, 13]: 7%
DBNPA loss, % [2, 14]: 2%
DBNPA loss, % [2, 15]: 2.5%
DBNPA loss, % [2, 16]: 3%
DBNPA loss, % [2, 17]: 3%
DBNPA loss, % [2, 18]: 14^1%
DBNPA loss, % [2, 19]: 4.5%
DBNPA loss, % ([4]; glycerin 30%, water 5%, TEG 45, 20% DBNPA): 3^ %
DBNPA loss, % ([4]; glycerin 45%, water 5%, TEG 30, 20% DBNPA): 3^ %
DBNPA loss, % ([4]; glycerin 65%, water […]%, DEGMME 10, only 10% DBNPA): 95^1%
DBNPA loss, % ([4]; glycerin 65%, water […]%, TEG 10, only 10% DBNPA): 3^1%
DBNPA loss, % ([4]; glycerin 65%, water […]%, TetEG 10, only 10% DBNPA): 95^1%
Structure (SMILES): N#CC(Br)(Br)C(N)=O [DBNPA, 2,2-dibromo-3-nitrilopropionamide]
DBNPA loss, % [3, 20]: 40%
DBNPA loss, % [3, 21]: 10%
DBNPA loss, % [3, 22]: 18%
DBNPA loss, % [3, 23]: 16%
DBNPA loss, % [3, 24]: 18%
DBNPA loss, % [3, 25]: 6%
DBNPA loss, % [3, 26]: 14%
DBNPA loss, % [3, 27]: 18%
DBNPA loss, % [3, 28]: 5%
DBNPA loss, % [3, 29]: 14%

BNPD loss, % [2, 5]: 1.5%
BNPD loss, % ([2]; glycerin 0%, water 20%, TEG 54, 20% DBNPA): 7%
BNPD loss, % [2, 6]: 0%
BNPD loss, % [2, 7]: 1%
BNPD loss, % [2, 8]: 6%
BNPD loss, % [2, 9]: 0.5%
BNPD loss, % [2, 10]: 8.5%
BNPD loss, % [2, 11]: 1.5%
BNPD loss, % [2, 12]: 4%
BNPD loss, % [2, 13]: 3%
BNPD loss, % [2, 14]: 1.5%
BNPD loss, % [2, 15]: 1.5%
BNPD loss, % [2, 16]: 1%
BNPD loss, % [2, 17]: 2%
BNPD loss, % [2, 18]: 12.5^1%
BNPD loss, % [2, 19]: 3.5%
Structure (SMILES): O=[N+]([O-])C(Br)(CO)CO [BNPD, 2-bromo-2-nitro-1,3-propanediol]
BNPD loss, % ([3]; glycerin 0%, water 10%, TEG 59.5%): 3%
BNPD loss, % [3, 20]: 0%
BNPD loss, % [3, 21]: 1%
BNPD loss, % [3, 22]: 0%
BNPD loss, % [3, 23]: 3%
BNPD loss, % [3, 24]: 3%
BNPD loss, % [3, 25]: 3%
BNPD loss, % ([3]; glycerin 10%, water 10%, TEG-mono-butyl ether 49.5%): 3%
BNPD loss, % ([3]; glycerin 10%, water 20%, TEG 39.5%): 3%
BNPD loss, % [3, 26]: 3%
BNPD loss, % [3, 27]: 4%
BNPD loss, % [3, 28]: 3%
BNPD loss, % ([3]; glycerin 20%, water 10%, TEG-mono-butyl ether 39.5%): 3%
BNPD loss, % [3, 29]: 4%
